SMILES strings stand for the structures. Bounds are passed on as bounds.

These results are taken from patent publication US20260234150A1, “COMPOUND FOR INHIBITING NLRP3, PREPARATION METHOD, AND USE” (DOVETREE MEDICINES UNUS, INC., priority 2023, published 2026).

The target in one assay is T1, CYP2C19 (Homo sapiens, UniProt P33261).
T1 construct: (CYP2C19 uses 0.2 mg/mL liver microsome); tissue BioIVT IHG; host or cells: human liver microsomes
In words: CYP450 enzyme inhibition in human liver microsomes, CYP2C19. Type of assay: in vitro ADME. The following applies: substrate Mephenytoin, read-out: Inhibitory activity IC50 (μM) CYP2C19. The protocol: (§1) This experiment incubates the compound, liver microsomes and different CYP subtype enzyme substrates in a 37° C. water bath to measure the amount of substrate metabolites produced and evaluate the inhibitory effect of the compound of the present disclosure on CYP enzymes based on the IC50 value.
(§2) i. The compound was diluted to 0, 0.02 mM, 0.06 mM, 0.2 mM, 0.6 mM, 2 mM and 6 mM concentrations with DMSO (Aladdin, catalog number: D103273-500 ml).
(§3) ii. The enzyme substrate solutions of each CYP subtype were prepared by phosphate buffer (sigma: V900050-500G).
(§4) iii. Sample incubation. […] After centrifugation at 4000 rpm and 4° C. for 40 min, the supernatant was diluted with pure water according to the response of the substrate metabolites and then detected by UPLC-MS/MS (Sciex, Q-Trap 4500). […]
(§5) The inhibitory effect of the compound on each P450 enzyme in human liver microsomes was calculated as the percentage of reduced metabolite formation compared with the non-inhibitory control (i.e., blank DMSO). The IC50 value for each P450 enzyme in human liver microsomes was calculated using the logarithm of the remaining activity and the inhibitor concentration using Graphpad Prism software. […]

For the next assay, the target named is T2, CYP1A2 (Homo sapiens, UniProt P05177).
T2 construct: 0.05 mg/mL liver microsome (BioIVT, IHG) phosphate buffer solution; tissue BioIVT IHG; host or cells: human liver microsomes
T2 sequence (P05177 1-516): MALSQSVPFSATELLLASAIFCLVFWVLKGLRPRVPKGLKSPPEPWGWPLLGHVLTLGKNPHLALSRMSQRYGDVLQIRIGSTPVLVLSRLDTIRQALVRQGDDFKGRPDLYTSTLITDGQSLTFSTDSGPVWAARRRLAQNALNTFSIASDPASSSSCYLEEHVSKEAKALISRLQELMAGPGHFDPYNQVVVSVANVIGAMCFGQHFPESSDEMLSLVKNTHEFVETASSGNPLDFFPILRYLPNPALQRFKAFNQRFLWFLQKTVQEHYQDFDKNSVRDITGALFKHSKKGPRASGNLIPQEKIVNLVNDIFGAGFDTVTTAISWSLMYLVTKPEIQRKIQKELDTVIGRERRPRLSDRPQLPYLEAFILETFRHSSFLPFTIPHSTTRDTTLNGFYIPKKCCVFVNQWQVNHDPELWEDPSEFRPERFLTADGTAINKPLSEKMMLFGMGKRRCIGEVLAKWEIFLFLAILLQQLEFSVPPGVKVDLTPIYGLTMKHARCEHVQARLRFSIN
Briefly: CYP450 enzyme inhibition in human liver microsomes, CYP1A2. Type of assay: in vitro ADME. Particulars: substrate Phenacetin, read-out: Inhibitory activity IC50 (μM) CYP1A2. The protocol:
as §1, §2, §3, §4, §5

Assay [1] addresses T3, His6-Flag-TEV-NLRP3 (134-1036) (Homo sapiens, UniProt Q96P20).
T3 construct: fused on or other part: N-terminal His6 tag, Flag tag and TEV cleavage site
In words: NLRP3 fluorescence polarization (FP) binding assay, competition with probe NP3-301. Particulars: competition with NP3-301 for binding to NLRP3 (134-1036), 30 nM protein. Put shortly:
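Compound was preincubated 60 min at room temperature with NLRP3 protein (30 nM final) in 50 mM Hepes pH 7.4, 150 mM NaCl, 2.5 mM MgCl2, 1 mM TCEP, 100 μM ATP. Probe NP3-301 (0.5 nM final) was then added for 30 min. Fluorescence polarization was read at ex 485/em 535 nm, and IC50 was obtained by four-parameter logistic fit.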

The next assay concerns the target T4, CYP2C9 (Homo sapiens, UniProt P11712).
T4 construct: 0.05 mg/mL liver microsome (BioIVT, IHG) phosphate buffer solution; tissue BioIVT IHG; host or cells: human liver microsomes
Briefly: CYP450 enzyme inhibition in human liver microsomes, CYP2C9. Type of assay: in vitro ADME. The following applies: substrate Diclofenac Sodium, read-out: Inhibitory activity IC50 (μM) CYP2C9. The protocol: as §1, §2, §3, §4, §5

T1 sequence (P33261 whole entry): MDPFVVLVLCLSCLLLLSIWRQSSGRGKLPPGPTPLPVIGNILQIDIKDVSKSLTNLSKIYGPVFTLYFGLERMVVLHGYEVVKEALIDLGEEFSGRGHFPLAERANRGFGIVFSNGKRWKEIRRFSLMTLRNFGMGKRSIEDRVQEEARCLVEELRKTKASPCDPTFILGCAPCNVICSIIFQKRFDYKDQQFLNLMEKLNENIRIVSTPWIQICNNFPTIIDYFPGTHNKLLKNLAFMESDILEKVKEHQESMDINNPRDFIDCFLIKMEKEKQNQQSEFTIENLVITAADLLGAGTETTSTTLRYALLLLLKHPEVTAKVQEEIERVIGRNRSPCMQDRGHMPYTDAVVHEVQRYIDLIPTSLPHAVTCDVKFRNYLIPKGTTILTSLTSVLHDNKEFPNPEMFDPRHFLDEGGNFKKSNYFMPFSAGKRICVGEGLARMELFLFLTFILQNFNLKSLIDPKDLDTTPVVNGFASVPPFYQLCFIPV
T3 sequence (Q96P20 134-1036 limits assumed): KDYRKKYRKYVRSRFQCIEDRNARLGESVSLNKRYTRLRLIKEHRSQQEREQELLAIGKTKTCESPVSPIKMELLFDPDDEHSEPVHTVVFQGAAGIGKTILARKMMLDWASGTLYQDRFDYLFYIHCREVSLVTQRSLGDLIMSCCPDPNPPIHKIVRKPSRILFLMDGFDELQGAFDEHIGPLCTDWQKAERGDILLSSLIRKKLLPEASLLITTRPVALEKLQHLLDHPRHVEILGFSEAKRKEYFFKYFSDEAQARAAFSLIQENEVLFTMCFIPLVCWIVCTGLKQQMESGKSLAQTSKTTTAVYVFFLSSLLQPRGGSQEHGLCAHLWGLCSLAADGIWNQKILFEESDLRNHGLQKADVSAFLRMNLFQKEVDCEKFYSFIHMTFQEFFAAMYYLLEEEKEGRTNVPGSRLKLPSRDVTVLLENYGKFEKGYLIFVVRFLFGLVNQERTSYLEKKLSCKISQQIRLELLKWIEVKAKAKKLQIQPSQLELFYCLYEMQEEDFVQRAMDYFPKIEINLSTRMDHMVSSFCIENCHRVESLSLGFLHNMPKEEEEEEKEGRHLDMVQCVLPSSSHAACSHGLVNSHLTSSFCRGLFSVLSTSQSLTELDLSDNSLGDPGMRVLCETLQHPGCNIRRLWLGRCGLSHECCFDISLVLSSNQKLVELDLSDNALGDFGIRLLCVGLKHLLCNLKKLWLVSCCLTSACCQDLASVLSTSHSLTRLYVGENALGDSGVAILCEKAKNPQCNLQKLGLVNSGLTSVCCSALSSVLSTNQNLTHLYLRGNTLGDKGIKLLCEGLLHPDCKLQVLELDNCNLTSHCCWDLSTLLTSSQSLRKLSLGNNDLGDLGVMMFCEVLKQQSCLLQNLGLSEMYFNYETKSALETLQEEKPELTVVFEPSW
T4 sequence (P11712 whole entry): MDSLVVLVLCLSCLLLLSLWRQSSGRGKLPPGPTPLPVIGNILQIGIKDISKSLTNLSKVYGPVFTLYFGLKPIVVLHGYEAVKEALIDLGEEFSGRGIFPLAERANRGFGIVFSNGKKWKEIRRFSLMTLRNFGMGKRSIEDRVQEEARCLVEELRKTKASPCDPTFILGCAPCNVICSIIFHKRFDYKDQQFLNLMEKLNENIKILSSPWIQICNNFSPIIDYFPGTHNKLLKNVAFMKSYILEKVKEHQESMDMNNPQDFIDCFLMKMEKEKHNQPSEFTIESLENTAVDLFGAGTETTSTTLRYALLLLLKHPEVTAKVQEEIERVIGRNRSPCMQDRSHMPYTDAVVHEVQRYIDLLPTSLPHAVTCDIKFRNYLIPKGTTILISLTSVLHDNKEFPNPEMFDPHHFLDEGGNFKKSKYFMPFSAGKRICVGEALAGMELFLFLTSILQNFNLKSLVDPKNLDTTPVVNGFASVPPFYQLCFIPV

Take `CC(=O)N1CCOC[C@H]1CNc1nc2nc(-c3c(C)cc(C(F)(F)F)cc3O)ccc2o1` [Compound 111]: the IC50 on CYP2C19 is more than 30 µM; on CYP1A2 it was more than 30 µM; in assay [1] it was not above 0.1 µM; on CYP2C9, more than 30 µM.
